From patent publication US12371426B2, “Pyridazine derivatives as SMARCA2/4 degraders” (Aurigene Discovery Technologies Limited, priority 2018, dated 2025)

Tests used:
NCI-H838 cells = assay: Anti proliferative activity in NCI-H838 cell line by Cell Titer Glo assay; assay type: cell-based; settings: Homo sapiens, 192 h, 8 days compound incubation, CellTiter Glo, read-out: Anti-proliferative activity IC50 group (NCI-H838 cells)
Method: Determination of Anti Proliferative Activity of Compounds in NCI-H929 and NCI-H838 Cell Lines by Cell Titer Glo® (promega) assay:
NCI-H929 (ATCC CRL-9068) or NCI-H838 (ATCC CRL-5844) cells were seeded in 96 well plate flat black clear bottom plates (Corning, Cat. No 3904) using complete RPMI-1640 media. Next day, compounds listed in the present invention were added to cells from 10 mM stocks made in DMSO (Sigma Cat no. D2650). Each concentration of compound was tested in triplicate with DMSO concentration at a final percentage not exceeding 0.3 in the cells. After the compound incubation (3 days for H929 and 8 days for H838) assay was terminated using 50 μl of CellTiter Glo® reagent (Promega, Cat. no G7572). CellTiter Glo® Luminescent reagent determines the number of viable cells based on quantitation of ATP present which is an indicator of cell number and metabolic activity. Luminescence readings were taken in Victor-3 instrument. Percent inhibition of proliferation was calculated using formula, % inhibition=100−(luminescence value of test/luminescence value of DMSO control)*100. DMSO control (0%)=Cells in complete media with DMSO; blank=Media alone containing DMSO. IC50 was calculated using graph pad prism software.
Herein group “A” refers to IC50 value lower than 1 μM, “B” refers to IC50 value between 1-10 μM (both inclusive) and “C” refers to IC50 value higher than 10 μM or less than 50% activity at 10 μM.

SMARCA4 = molecular target: T1, SMARCA4 (Homo sapiens, UniProt P51532); assay: SMARCA4 degradation in H929 cells by Western blot; assay type: cell-based; settings: 16 hours; for SMARCA4 percent degradation at 0.1 µM: NCI-H929, 100 nM
T1 construct: endogenous in cells; host or cells: NCI-H929 (ATCC CRL-9068)
T1 sequence (P51532 whole entry): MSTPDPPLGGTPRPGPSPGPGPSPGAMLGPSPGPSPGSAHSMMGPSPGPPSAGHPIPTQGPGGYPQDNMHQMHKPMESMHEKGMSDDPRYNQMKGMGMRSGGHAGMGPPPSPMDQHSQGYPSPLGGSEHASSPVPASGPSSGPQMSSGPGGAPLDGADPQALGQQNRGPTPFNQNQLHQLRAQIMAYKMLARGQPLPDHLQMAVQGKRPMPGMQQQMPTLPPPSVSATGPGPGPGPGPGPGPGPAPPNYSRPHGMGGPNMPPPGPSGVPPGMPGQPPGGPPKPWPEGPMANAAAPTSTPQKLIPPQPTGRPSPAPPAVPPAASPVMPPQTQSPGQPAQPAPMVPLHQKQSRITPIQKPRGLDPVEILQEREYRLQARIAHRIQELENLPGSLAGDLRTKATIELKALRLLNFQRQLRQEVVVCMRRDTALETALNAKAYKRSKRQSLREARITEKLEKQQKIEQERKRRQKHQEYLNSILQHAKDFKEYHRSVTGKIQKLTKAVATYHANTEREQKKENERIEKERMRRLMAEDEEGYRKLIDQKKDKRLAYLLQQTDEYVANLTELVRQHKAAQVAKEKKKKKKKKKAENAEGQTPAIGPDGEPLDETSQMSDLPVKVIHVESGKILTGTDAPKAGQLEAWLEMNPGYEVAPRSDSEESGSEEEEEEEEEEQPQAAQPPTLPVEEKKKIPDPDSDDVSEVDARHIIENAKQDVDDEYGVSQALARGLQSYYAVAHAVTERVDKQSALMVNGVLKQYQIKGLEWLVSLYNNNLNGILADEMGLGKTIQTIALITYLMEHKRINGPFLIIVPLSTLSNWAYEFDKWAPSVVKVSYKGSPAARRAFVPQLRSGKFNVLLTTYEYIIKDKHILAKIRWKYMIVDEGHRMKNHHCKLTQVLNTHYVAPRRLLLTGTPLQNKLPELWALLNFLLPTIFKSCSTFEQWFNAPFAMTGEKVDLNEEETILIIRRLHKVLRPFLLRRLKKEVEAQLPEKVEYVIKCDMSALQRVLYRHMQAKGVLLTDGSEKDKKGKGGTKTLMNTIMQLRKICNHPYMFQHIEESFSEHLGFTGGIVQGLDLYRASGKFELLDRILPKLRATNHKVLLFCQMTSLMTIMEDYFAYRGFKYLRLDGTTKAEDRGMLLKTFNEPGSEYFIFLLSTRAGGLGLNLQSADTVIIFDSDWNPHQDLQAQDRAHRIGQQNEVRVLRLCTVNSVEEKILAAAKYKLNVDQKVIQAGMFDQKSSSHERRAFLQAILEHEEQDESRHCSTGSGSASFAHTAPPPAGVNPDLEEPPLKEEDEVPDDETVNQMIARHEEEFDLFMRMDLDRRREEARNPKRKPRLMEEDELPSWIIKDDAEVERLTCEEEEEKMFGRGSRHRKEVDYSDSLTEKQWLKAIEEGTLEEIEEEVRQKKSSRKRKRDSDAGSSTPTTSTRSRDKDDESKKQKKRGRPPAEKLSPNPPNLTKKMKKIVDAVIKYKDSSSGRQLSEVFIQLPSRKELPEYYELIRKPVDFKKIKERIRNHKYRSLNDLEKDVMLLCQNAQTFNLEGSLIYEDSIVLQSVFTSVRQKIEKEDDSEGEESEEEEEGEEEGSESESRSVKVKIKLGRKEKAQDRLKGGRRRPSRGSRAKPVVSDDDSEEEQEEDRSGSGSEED
Method: (§1) Determination of SMARCA2 and SMARCA4 Degradation in H929 Cells by Western Blot:
(§2) NCI-H929 (ATCC CRL-9068) was plated in 6 well plates using complete RPMI-1640 media. Next day, compounds of present invention were added to cells from 10 mM stocks made in DMSO (Sigma Cat no. D2650). Each concentration of compound was tested with DMSO not exceeding final percentage of 0.3 in the cells. Cells were incubated with the compound for 16 hours followed by harvesting with 1× RIPA lysis buffer (Thermo Fischer, catalogue number #89900) containing protease inhibitor cocktail (Sigma catalogue number #P-8340). Equal amount of protein was loaded on SDS PAGE gel for electrophoresis. Western blot was carried out for detection of either SMARCA2 (Cell signaling technologies, catalogue number #11966) or SMARCA4 antibody (Cell signaling technologies, catalogue number #49360). Beta Actin (Santa Cruz, catalogue number #69879) was used as loading control. Percentage of SMARCA2 or SMARCA4 degradation was calculated using formula % Degradation=100−(normalized band intensity in treated sample/normalized band intensity in DMSO sample)*100.
(§3) Selected compounds of the present invention were screened in the above mentioned assay procedures for determination of % SMARCA2 and SMARCA4 degradation 100 nM and the results are summarized in below table 30.

SMARCA2 [1] = molecular target: T2, SMARCA2 (Homo sapiens, UniProt P51531); assay: SMARCA2 degradation in H929 cells by Western blot; assay type: cell-based; set-up: endogenous in cells; settings: 16 hours
T2 sequence (P51531 whole entry): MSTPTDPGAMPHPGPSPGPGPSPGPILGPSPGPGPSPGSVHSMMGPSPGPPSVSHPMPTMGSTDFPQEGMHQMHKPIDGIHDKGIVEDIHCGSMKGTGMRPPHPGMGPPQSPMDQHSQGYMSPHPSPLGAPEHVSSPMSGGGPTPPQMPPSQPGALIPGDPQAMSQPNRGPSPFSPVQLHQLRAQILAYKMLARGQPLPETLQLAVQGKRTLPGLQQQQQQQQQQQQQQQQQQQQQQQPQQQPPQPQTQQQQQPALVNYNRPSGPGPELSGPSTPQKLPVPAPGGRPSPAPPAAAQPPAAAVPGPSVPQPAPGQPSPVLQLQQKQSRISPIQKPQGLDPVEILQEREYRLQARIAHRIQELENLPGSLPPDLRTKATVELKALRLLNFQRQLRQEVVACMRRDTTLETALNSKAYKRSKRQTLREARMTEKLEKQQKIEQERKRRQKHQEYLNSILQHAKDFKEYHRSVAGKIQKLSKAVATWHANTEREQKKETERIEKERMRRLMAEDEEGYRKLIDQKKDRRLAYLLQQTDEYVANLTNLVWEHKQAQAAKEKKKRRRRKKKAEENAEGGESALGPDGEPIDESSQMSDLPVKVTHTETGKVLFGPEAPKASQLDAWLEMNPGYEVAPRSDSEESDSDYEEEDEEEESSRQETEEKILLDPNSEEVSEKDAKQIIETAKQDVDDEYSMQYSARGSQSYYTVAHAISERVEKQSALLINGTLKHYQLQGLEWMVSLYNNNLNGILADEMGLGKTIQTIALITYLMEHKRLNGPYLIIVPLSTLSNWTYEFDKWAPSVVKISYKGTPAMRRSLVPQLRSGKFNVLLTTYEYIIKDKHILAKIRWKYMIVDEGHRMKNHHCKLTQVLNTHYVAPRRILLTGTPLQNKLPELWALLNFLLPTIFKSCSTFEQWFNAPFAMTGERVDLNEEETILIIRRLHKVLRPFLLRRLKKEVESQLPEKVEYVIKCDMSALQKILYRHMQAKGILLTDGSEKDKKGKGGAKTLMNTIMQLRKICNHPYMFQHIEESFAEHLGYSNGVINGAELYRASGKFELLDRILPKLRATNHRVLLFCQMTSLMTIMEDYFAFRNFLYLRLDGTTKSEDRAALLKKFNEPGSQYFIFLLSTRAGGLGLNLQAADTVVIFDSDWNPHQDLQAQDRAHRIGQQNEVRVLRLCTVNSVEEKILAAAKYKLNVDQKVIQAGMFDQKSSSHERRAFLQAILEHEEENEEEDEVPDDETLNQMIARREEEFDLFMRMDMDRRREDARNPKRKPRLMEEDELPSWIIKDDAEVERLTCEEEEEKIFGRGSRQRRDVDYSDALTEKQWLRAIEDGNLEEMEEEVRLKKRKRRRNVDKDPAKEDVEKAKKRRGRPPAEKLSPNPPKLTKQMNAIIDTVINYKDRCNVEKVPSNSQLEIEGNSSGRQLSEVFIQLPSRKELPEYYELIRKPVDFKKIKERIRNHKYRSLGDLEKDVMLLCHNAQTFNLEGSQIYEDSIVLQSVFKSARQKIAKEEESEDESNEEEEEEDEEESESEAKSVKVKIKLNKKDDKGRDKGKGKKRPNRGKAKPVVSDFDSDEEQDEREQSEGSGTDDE
Method: as §1, §2, §3

SMARCA2 [2] = molecular target: T2, SMARCA2; assay: SMARCA2 degradation in NCI-H838 cells by Western blot; assay type: cell-based; set-up: endogenous in cells; host or cells: NCI-H838 (ATCC CRL-5844); settings: 16 hours
Method: Determination of SMARCA2 Degradation in NCI-1H838 Cells by Western Blot:
NCI-1H838 (ATCC CRL-5844) was plated in 6 well plates using complete RPMI-1640 media. Next day, compounds of present invention were added to cells from 10 mM stocks made in DMSO (Sigma Cat no. D2650). Each concentration of compound was tested with DMSO concentration not exceeding a final percentage of 0.3 in the cells. Cells were incubated with the compound for 16 hours followed by harvesting with 1× RIPA lysis buffer (Thermo Fischer, catalogue number #89900) containing protease inhibitor cocktail (Sigma catalogue number #P-8340). Equal amount of protein was loaded on SIDS PAGE gel for electrophoresis. Western blot was carried out for detection of SMARCA2 with antibody (Cell signaling technologies, catalogue number #11966). Beta Actin (Santa Cruz, catalogue number #69879) was used as loading control. Percentage of SMARCA2 degradation was calculated using formula % degradation=100−(normalized band intensity in treated sample/normalized band intensity in DMSO sample)*100”.
Selected compounds of the present invention were screened in the above mentioned assay procedures for determination of % SMARCA2 degradation at 100 nM and the results are summarized in below table 31.

NCI-H929 cells = assay: Anti proliferative activity in NCI-H929 cell line by Cell Titer Glo assay; assay type: cell-based; settings: Homo sapiens, 72 h, 3 days compound incubation, CellTiter Glo, read-out: Anti-proliferative activity IC50 group (NCI-H929 cells)
Method in brief: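 Cells seeded in complete RPMI-1640 and exposed next day to compounds in triplicate (DMSO ≤0.3% final) for 3 days (H929) or 8 days (H838). Viability by CellTiter-Glo ATP luminescence; % inhibition relative to DMSO control, IC50 from dose-response fit.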

[3] = test system: SMARCA4-deficient cancer cell lines; settings: SMARCA2/4 bromodomain inhibitor; Cancer Res. 2015; cited from earlier work

| SMILES | IC50 (NCI-H838 cells) [µM] | SMARCA4 percent degradation at 0.1 µM (SMARCA4) [%] | SMARCA2 Percent degradation @ 100 nM (SMARCA2 [1]) [%] | SMARCA2 @ 100 nM (% SMARCA2 degradation) (SMARCA2 [2]) [%] | IC50 (NCI-H929 cells) [µM] | SMARCA4 Percent degradation @ 100 nM (SMARCA4) [%] | antiproliferative phenotype [3] |
| --- | --- | --- | --- | --- | --- | --- | --- |
| Cc1ncsc1-c1ccc([C@H](C)NC(=O)[C@@H]2C[C@@H](O)CN2C(=O)[C@@H](NC(=O)C(C)N2CCN(c3cc(-c4ccccc4O)nnc3N)CC2)C(C)(C)C)cc1 (single isomer, unassigned) [Compound 58] | < 1 | 100 | 100 | 71 | – | – | – |
| Cc1ncsc1-c1ccc([C@H](C)NC(=O)[C@@H]2C[C@@H](O)CN2C(=O)[C@@H](NC(=O)C(C)C2CCN(c3cc(-c4cccc(F)c4O)nnc3N)CC2)C(C)(C)C)cc1 (single isomer, unassigned) [Compound 83] | < 1 | – | 100 | 7 | – | – | – |
| Cc1ncsc1-c1ccc([C@H](C)NC(=O)[C@@H]2C[C@@H](O)CN2C(=O)[C@@H](NC(=O)CN2CCN(c3cc(-c4ccccc4O)nnc3N)CC2)C(C)(C)C)cc1 [Compound 43] | < 1 | – | 100 | 97 | < 1 | 100 | – |
| Cc1ncsc1-c1ccc([C@H](C)NC(=O)[C@@H]2C[C@@H](O)CN2C(=O)[C@@H](NC(=O)CC2CCN(c3cc(-c4ccccc4O)nnc3N)CC2)C(C)(C)C)cc1 [Compound 51, (2S,4R)-1-((S)-2-(2-(1-(3-amino-6-(2-hydroxyphenyl)pyridazin-4-yl)piperidin-4-yl)acetamido)-3,3-dimethylbutanoyl)-4-hydroxy-N—((S)-1-(4-(4-methylthiazol-5-yl)phenyl)ethyl)pyrrolidine-2-carboxamide] | < 1 | 99 | – | 99 | < 1 | – | – |
| Cc1ncsc1-c1ccc([C@H](C)NC(=O)[C@@H]2C[C@@H](O)CN2C(=O)[C@@H](NC(=O)CC2(O)CCN(c3cc(-c4ccccc4O)nnc3N)CC2)C(C)(C)C)cc1 [Compound 55, (2S,4R)-1-((S)-2-(2-(1-(3-amino-6-(2-hydroxyphenyl)pyridazin-4-yl)-4-hydroxypiperidin-4-yl)acetamido)-3,3-dimethylbutanoyl)-4-hydroxy-N—((S)-1-(4-(4-methylthiazol-5-yl)phenyl)ethyl)pyrrolidine-2-carboxamide] | < 1 | – | – | – | < 1 | – | – |
| Cc1ncsc1-c1ccc([C@H](C)NC(=O)[C@@H]2C[C@@H](O)CN2C(=O)[C@@H](NC(=O)CN2C3CCC2CN(c2cc(-c4ccccc4O)nnc2N)C3)C(C)(C)C)cc1 [Compound 61, (2S,4R)-1-((2S)-2-(2-(3-(3-amino-6-(2-hydroxyphenyl)pyridazin-4-yl)-3,8-diazabicyclo[3.2.1]octan-8-yl)acetamido)-3,3-dimethylbutanoyl)-4-hydroxy-N—((S)-1-(4-(4-methylthiazol-5-yl)phenyl)ethyl)pyrrolidine-2-carboxamide] | < 1 | – | – | 35 | – | – | – |
| Cc1ncsc1-c1ccc([C@H](C)NC(=O)[C@@H]2C[C@@H](O)CN2C(=O)[C@@H](NC(=O)CN2CCN(c3cc(-c4cc(F)ccc4O)nnc3N)CC2)C(C)(C)C)cc1 [Compound 63, (2S,4R)-1-((S)-2-(2-(4-(3-amino-6-(5-fluoro-2-hydroxyphenyl)pyridazin-4-yl)piperazin-1-yl)acetamido)-3,3-dimethylbutanoyl)-4-hydroxy-N—((S)-1-(4-(4-methylthiazol-5-yl)phenyl)ethyl)pyrrolidine-2-carboxamide] | < 1 | – | – | 94 | – | – | – |
| Cc1ncsc1-c1ccc([C@H](C)NC(=O)[C@@H]2C[C@@H](O)CN2C(=O)[C@@H](NC(=O)CN2CCC(c3cc(-c4ccccc4O)nnc3N)CC2)C(C)(C)C)cc1 [Compound 81] | < 1 | – | – | 34 | < 1 | – | – |
| Cc1ncsc1-c1ccc([C@H](C)NC(=O)[C@@H]2C[C@@H](O)CN2C(=O)[C@@H](NC(=O)CN2CC=C(c3cc(-c4ccccc4O)nnc3N)CC2)C(C)(C)C)cc1 [Compound 82] | < 1 | – | – | 61 | < 1 | – | – |
| Cc1ncsc1-c1ccc([C@H](C)NC(=O)[C@@H]2C[C@@H](O)CN2C(=O)[C@@H](NC(=O)CN2CCN(c3cc(-c4cccc(F)c4O)nnc3N)CC2)C(C)(C)C)cc1 [Compound 90] | < 1 | 101 | 100 | 85 | < 1 | – | – |
| Cc1cccc(-c2cc(N3CCN(CC(=O)N[C@H](C(=O)N4C[C@H](O)C[C@H]4C(=O)N[C@@H](C)c4ccc(-c5scnc5C)cc4)C(C)(C)C)CC3)c(N)nn2)c1O [Compound 91] | < 1 | – | – | 82 | – | – | – |
| Cc1ncsc1-c1ccc([C@H](C)NC(=O)[C@@H]2C[C@@H](O)CN2C(=O)[C@@H](NC(=O)CN2CCN(c3cc(-c4c(O)ccc(F)c4F)nnc3N)CC2)C(C)(C)C)cc1 [Compound 96] | < 1 | – | – | 76 | – | – | – |
| Cc1ncsc1-c1ccc([C@H](C)NC(=O)[C@@H]2C[C@@H](O)CN2C(=O)[C@@H](NC(=O)CC2CCN(c3cc(-c4cc(F)ccc4O)nnc3N)CC2)C(C)(C)C)cc1 [Compound 99] | < 1 | 100 | 99 | 75 | < 1 | – | – |
| Cc1ncsc1-c1ccc([C@H](C)NC(=O)[C@@H]2C[C@@H](O)CN2C(=O)[C@@H](NC(=O)C=C2CCN(c3cc(-c4ccccc4O)nnc3N)CC2)C(C)(C)C)cc1 [Compound 103] | < 1 | – | – | 64 | – | – | – |
| O=C(/C=C/N1C[C@H]2C[C@@H]1CN2c1ccccn1)c1ccccc1O [PFI-3] | – | – | – | – | – | – | fails to display an antiproliferative phenotype |
